Results reported in PubChem BioAssay AID1645862 (Buhrlage Lab, Dana-Farber Cancer Institute and Novartis …, 2021).
pIC50: −log10 of the molar value. Activity calls are given as the source filed them. The rule behind the calls is not given here. Bridge positions count the residues as written; N and C are the ends. Square brackets hold non-standard residues; d marks the D form. Peptide text beside a SMILES is read from it. * marks the point of attachment. ξ: configuration not given here. Pentadecanoyl(3ξ-OH,15-Gua) = N=C(N)NCCCCCCCCCCCCC(O)CC(=O)*; d(aIle) = CC[C@H](C)[C@@H](N)C(=O)O; d(aThr) = C[C@@H](O)[C@@H](N)C(=O)O; X1 = CCCCCCCCCCCC(O)CC(=O)*; ξL = CC(C)CC(N)C(=O)O

Target: Ubiquitin carboxyl-terminal hydrolase 8 (Homo sapiens) (UniProt P40818)
Sequence (P40818 whole entry, looked up): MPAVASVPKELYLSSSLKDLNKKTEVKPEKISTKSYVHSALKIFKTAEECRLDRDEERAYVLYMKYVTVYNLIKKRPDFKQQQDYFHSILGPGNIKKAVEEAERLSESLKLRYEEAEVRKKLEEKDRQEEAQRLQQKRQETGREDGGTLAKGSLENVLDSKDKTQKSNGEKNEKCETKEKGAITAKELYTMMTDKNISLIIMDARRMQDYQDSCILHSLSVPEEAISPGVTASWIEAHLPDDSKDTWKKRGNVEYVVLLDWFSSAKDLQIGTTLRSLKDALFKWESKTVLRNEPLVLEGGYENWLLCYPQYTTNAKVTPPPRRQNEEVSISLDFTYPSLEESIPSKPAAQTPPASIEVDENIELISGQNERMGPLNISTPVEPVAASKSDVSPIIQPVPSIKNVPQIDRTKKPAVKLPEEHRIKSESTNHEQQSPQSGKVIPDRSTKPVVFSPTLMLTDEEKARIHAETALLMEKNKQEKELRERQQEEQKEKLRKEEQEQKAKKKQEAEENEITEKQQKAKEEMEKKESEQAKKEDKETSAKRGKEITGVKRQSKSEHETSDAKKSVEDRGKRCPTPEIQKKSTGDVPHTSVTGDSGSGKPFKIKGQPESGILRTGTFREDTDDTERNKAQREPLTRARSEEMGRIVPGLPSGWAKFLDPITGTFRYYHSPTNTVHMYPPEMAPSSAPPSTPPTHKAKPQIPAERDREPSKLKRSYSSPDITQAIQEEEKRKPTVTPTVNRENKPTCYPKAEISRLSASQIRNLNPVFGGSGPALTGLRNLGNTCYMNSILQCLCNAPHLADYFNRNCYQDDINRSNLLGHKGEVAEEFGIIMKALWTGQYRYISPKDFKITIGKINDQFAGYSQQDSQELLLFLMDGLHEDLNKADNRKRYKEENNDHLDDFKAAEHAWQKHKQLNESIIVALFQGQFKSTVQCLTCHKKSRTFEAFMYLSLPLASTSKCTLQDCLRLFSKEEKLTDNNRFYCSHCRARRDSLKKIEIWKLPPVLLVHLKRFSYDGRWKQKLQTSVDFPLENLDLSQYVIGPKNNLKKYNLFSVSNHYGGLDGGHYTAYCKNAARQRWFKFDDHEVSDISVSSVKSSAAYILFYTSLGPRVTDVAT
Test: Ubiquitin-specific protease 8 inhibitors, concentration-effect, biochemical, validation of initial actives (AID 1645862);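 note: potency reflects inhibition of USP8 cleavage of a ubiquitin rhodamine substrate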
Details: recombinant USP8 deubiquitinase activity assay

Structure (SMILES)	IC50	pIC50
FC(F)(F)c1cccc(Nc2nc(-c3ccccn3)nc3ccccc23)c1	> 40 µM (inactive)	
Cc1ccccc1Cn1c(=O)n(CC2CCC(C(=O)NC3CCCC3)CC2)c(=O)c2ccccc21 (stereo not given)	> 40 µM (inactive)	
Cc1ccc2c(c1)c(=O)c(C(=O)c1ccccc1)cn2CC(=O)Nc1ccc2c(c1)OCCO2	> 40 µM (inactive)	
CCCCCCCCCCCC(O)CC(=O)N[C@@H](CC(C)C)C(=O)N[C@H](CCC(=O)O)C(=O)N[C@H]1C(=O)N[C@H]([C@@H](C)CC)C(=O)NC(CC(C)C)C(=O)N[C@H](CO)C(=O)N[C@@H](CC(C)C)C(=O)N[C@@H](CC(C)C)C(=O)N[C@H](CO)C(=O)N[C@@H](C(C)C)C(=O)O[C@@H]1C (stereo not given in full) (X1-L[dE][d(aThr)][d(aIle)][ξL][dS]LL[dS]V; ester 3-C)	> 40 µM (inactive)	
Cc1ccc(-c2nnc3ccc(SCC(=O)N4CCCc5ccccc54)nn23)cc1	> 40 µM (inactive)	
Cc1ccc(NC(=O)c2ccc3nn(CC(=O)Nc4ccc(F)cc4F)c(=O)n3c2)cc1	> 40 µM (inactive)	
Cc1sc(NC(=O)Cn2nnc3ccccc32)nc1-c1ccc2c(c1)CCN2C(=O)c1ccccc1F	> 40 µM (inactive)	
COc1ccc(C)cc1NC(=O)CN1C(=O)C2CCCC2=Nc2ccccc21 (stereo not given)	> 40 µM (inactive)	
Cc1[nH]c2ccc(F)cc2c(=O)c1CN1CCCCC1	> 40 µM (inactive)	
COc1ccc(-n2c(=O)c3ccc(C(=O)NCCc4ccccc4)cc3n(CC(=O)NCCC3=CCCCC3)c2=O)cc1	> 40 µM (inactive)	
Cc1ccccc1NC(=O)Cn1ccc2ccn(Cc3ccccc3)c2c1=O	> 40 µM (inactive)	
Cc1ccc2c(CNCCC3=CCCCC3)c(C(=O)O)n(C)c2c1	> 40 µM (inactive)	
c1cncc(-c2cnc3sc(NCc4ccc5c(c4)OCO5)nn23)c1	> 40 µM (inactive)	
CCCc1nnc(NC(=O)c2cc(-c3ccccc3O)n[nH]2)s1	> 40 µM (inactive)	
Cc1ccc(NC(=O)Cc2sc(Nc3ccc(C)cc3)nc2O)cc1	> 40 µM (inactive)	
CC(C)CC(=O)Nc1cc(F)c2nc(N3CCOCC3)ccc2c1	> 40 µM (inactive)	
O=c1c(O)c(-c2ccc(O)c(O)c2)oc2cc(O)cc(O)c12		6.10
COc1ccc(C(=O)COC(=O)c2cccc(NC(=O)c3ccc(Cl)cc3)c2)cc1	> 40 µM (inactive)	
O=C(CSc1nc2cc(C(F)(F)F)ccc2s1)NCC(=O)c1ccccc1	> 40 µM (inactive)	
CCCCNC(=O)CSc1nnc(-c2cc3ccccc3n2C)o1	> 40 µM (inactive)	
CN1C(=O)COc2cc(-c3noc(C(=O)NCc4ccc(F)cc4)n3)ccc21	> 40 µM (inactive)	
COc1ccc2c(c1)c(=O)c(S(=O)(=O)c1ccc(F)cc1)cn2Cc1cccc(F)c1	> 40 µM (inactive)	
Cc1cccc(NC(=O)Cn2c(=O)n(-c3cc(C)cc(C)c3)c(=O)c3sccc32)c1	> 40 µM (inactive)	

Structure (SMILES)	IC50	pIC50
CC1=C(C)C(N(c2ccccc2)c2ccccc2)N(CCC(C)C)C1=O (stereo not given)		4.42
O=C(NC1(O)C(=O)c2ccccc2C1=O)c1ccc(-c2csnn2)cc1		5.25
Cc1ccc2c(c1)N=C(c1ccc([N+](=O)[O-])cc1)CO2	> 40 µM (inactive)	
Cn1c2ccccc2c(=O)c2c(=O)n(-c3cccc(Cl)c3)c(-c3cccs3)nc21		5.35
Cc1cccc(C(=O)Nc2cccc(SC(C(=O)Nc3ccc(Cl)c(C(=O)O)c3)c3ccccc3)c2)c1 (stereo not given)		4.63
COc1ccc(-c2onc(C)c2C)cc1S(=O)(=O)NCc1ccc(F)cc1	> 40 µM (inactive)	
O=C(Cn1cc(C(=O)c2ccccc2)c(=O)c2cc(F)ccc21)Nc1ccc2c(c1)OCCO2	> 40 µM (inactive)	
COc1ccc(-c2c(NC(=O)C3COc4ccccc4O3)n[nH]c2C)cc1OC (stereo not given)		4.50
Cn1c(=O)c2ncnnc2n(C)c1=O		6.14
O=C(Cn1c(=O)c2sccc2n(Cc2ccc([N+](=O)[O-])cc2)c1=O)NCCc1ccccc1	> 40 µM (inactive)	
CCN(Cc1ccccc1)C(=O)Cn1ccc2ccn(C)c2c1=O	> 40 µM (inactive)	
COc1ccc(-c2cc(C(=O)Nc3ccnn3Cc3ccccc3)no2)cc1	> 40 µM (inactive)	
Cc1nc2cc(-c3noc(-c4cccc5[nH]ccc45)n3)ccc2o1	> 40 µM (inactive)	
Cc1cc(CN2CCCCC2c2cc(=O)n3ccnc3[nH]2)no1 (stereo not given)	> 40 µM (inactive)	
Cc1ccc(NC(=O)Nc2nnc(CC(=O)NCc3ccccc3)s2)cc1F	> 40 µM (inactive)	
Cc1cc(OCC(=O)Nc2ccccc2C(=O)Nc2ccccc2)ccc1Cl	> 40 µM (inactive)	
O=C(/C=C/c1ccco1)N1CCC(Cn2cccn2)CC1	> 40 µM (inactive)	
CCOc1ccc(NS(=O)(=O)c2ccc(NC(=O)Nc3ccccc3)cc2)cc1	> 40 µM (inactive)	
COc1ccc(C(=O)CSc2nnc(-c3cc4ccccc4o3)n2C)cc1	> 40 µM (inactive)	
O=C(NCCc1nc2ccccc2n1CCCOc1ccccc1Cl)C1CCCCC1	> 40 µM (inactive)	
O=C(CCCC(=O)N(c1ccc2c(c1)OCCO2)C(C(=O)NC1CCCCC1)c1ccc(F)cc1)Nc1ccccn1 (stereo not given)	> 40 µM (inactive)	
O=C(NCCc1nc2ccccc2n1CCOc1ccccc1Cl)C1CCCCC1	> 40 µM (inactive)	
CCOC(=O)CCc1c(C)c2ccc(OCC(=O)c3ccc(-c4ccccc4)cc3)c(C)c2oc1=O	> 40 µM (inactive)	

Structure (SMILES)	IC50	pIC50
Cc1nnc2ccc(-c3ccc(NC(=O)c4ccc(Br)o4)cc3)nn12	> 40 µM (inactive)	
COc1cc(/C=C/C(=O)OCC(=O)Nc2ccc([N+](=O)[O-])cc2OC)ccc1O		4.58
COc1ccc(NC(=O)Cn2c(C)cc(=O)n3nc(-c4cccc(C)c4)nc23)cc1	> 40 µM (inactive)	
COc1ccc(C2NC(=O)NC(C)=C2C(=O)OCC2CCCCC2)cc1OC (stereo not given)	> 40 µM (inactive)	
O=C1CC(c2nc3ccccc3n2CCOc2ccc(Cl)cc2)CN1c1ccccc1 (stereo not given)	> 40 µM (inactive)	
COc1c(O)cc(CC(=O)O)c(C(C)=O)c1O		5.33
COc1ccc(Cl)cc1NC(=O)c1nc(-c2cn(-c3ccccc3)nn2)no1	> 40 µM (inactive)	
NC(=O)C1(N2CCCCC2)CCN(c2ncc3c(=O)n(-c4ccccc4)c(=O)[nH]c3n2)CC1	> 40 µM (inactive)	
Cc1ccc(-c2cnc(C3CC3)o2)cc1S(=O)(=O)Nc1ccc(F)c(Cl)c1	> 40 µM (inactive)	
CCOc1ccc2c(c1)c(=O)c(C(=O)c1ccccc1)cn2CC(=O)Nc1ccc2c(c1)OCCO2	> 40 µM (inactive)	
O=C(Nc1ccc2c(c1)CCC2)C1Cc2ccccc2CN1C(=O)c1ccccc1 (stereo not given)	> 40 µM (inactive)	
O=C1CC(c2ccccc2)n2ncnc2N1 (stereo not given)	> 40 µM (inactive)	
Cc1occ2c1C(=O)c1c(O)ccc(O)c1C2		6.18
CCOC(=O)c1cc2c(ccn2C)n1CC(=O)NC1CC1	> 40 µM (inactive)	
CC1NC(=O)C(CC(N)=O)NC(=O)C(C(C)O)NC(=O)C(Cc2ccc(O)cc2)NC(=O)C(C(C)C)NC(=O)C(NC(=O)CC(O)CCCCCCCCCCCCN=C(N)N)C(C)OC1=O (stereo not given) ({Pentadecanoyl(3ξ-OH,15-Gua)}-TVYTNA; ester 1-C; configuration not given here)	> 40 µM (inactive)	
Cc1csc(NC(=O)c2c[nH]c3ccc(F)cc3c2=O)n1	> 40 µM (inactive)	
O=C(Cn1c(=O)c2ccccc2n(CC(=O)Nc2cccc(F)c2)c1=O)NCCc1ccccc1	> 40 µM (inactive)	
O=C(Cn1c(COc2ccccc2)nc2ccccc21)Nc1ccc(N2CCOCC2)cc1	> 40 µM (inactive)	
Cc1ccc(S(=O)(=O)Nc2nc(-c3ccc4c(c3)NC(=O)C(C)O4)c(C)s2)cc1 (stereo not given)	> 40 µM (inactive)	
O=C(NCCN1CCOCC1)c1cn2cc(Cl)ccc2n1	> 40 µM (inactive)	
CN(C)c1cccc(-c2nnc(SCC(=O)Nc3ccc(F)cc3)n2-c2ccccc2)c1	> 40 µM (inactive)	
O=C(Cn1c(=O)[nH]c2c(-c3ccc(F)cc3)c[nH]c2c1=O)NCc1ccc(F)cc1	> 40 µM (inactive)	
COc1cccc(NC(=O)c2cnc(N3CCCC3)nc2C)c1	> 40 µM (inactive)	

Structure (SMILES)	IC50	pIC50
O=C(c1[nH]nc2c1COc1ccccc1-2)N1CCN(c2ccccn2)CC1	> 40 µM (inactive)	
O=c1[nH]c(C2CCN(S(=O)(=O)c3ccc(S(=O)(=O)NC4CCCCC4)cc3)CC2)nc2c1nnn2Cc1ccc(F)cc1	> 40 µM (inactive)	
O=C(Cn1nc2c3c4c(sc3ncn2c1=O)CCCCC4)Nc1ccc(Cl)cc1F		4.58
Cc1ccc(CNC(=O)c2nc(-c3ccc4c(c3)OCC(=O)N4C)no2)cc1	> 40 µM (inactive)	
N#Cc1cn2c(nc1-c1ccc(Cl)cc1)nc1ccccc12	> 40 µM (inactive)	
CC(NC(=O)c1ccccc1)c1nc2ccccc2n1CC(=O)Nc1ccc(F)cc1 (stereo not given)	> 40 µM (inactive)	
COc1ccccc1C(=O)Nc1ccc(Oc2ncnc3sc(-c4ccccc4)cc23)cc1	> 40 µM (inactive)	
COc1ccc(NC(=O)Cn2cc(C(=O)c3ccccc3)c(=O)c3cc(Cl)ccc32)cc1OC	> 40 µM (inactive)	
Cc1c(C(=O)Nc2ccc(Oc3ccccc3)cc2)nnn1-c1cccc(Cl)c1	> 40 µM (inactive)	
O=c1c2ccccc2nc(CSc2cccc(Cl)c2Cl)n1-c1ccccc1	> 40 µM (inactive)	
Cc1ccc(Cn2c(C(=O)O)c(CNCc3ccco3)c3ccccc32)cc1	> 40 µM (inactive)	
Cn1c(=O)c2nc(-c3ccc(Cl)cc3)nnc2n(C)c1=O		6.13
COc1ccccc1-c1noc(CCCC(=O)Nc2ccccc2)n1	> 40 µM (inactive)	
Cc1ccc(NC(=O)c2cc(-c3ccccn3)nc3c(Cl)cccc23)nc1	> 40 µM (inactive)	
Cc1ccc(Nc2nc(Nc3cccc(F)c3)nc3nccnc23)c(C)c1	> 40 µM (inactive)	
O=C(Nc1ccc(C(F)(F)F)cc1)C1CC(=O)N(c2ccc3c(c2)OCCO3)C1 (stereo not given)	> 40 µM (inactive)	
NC(=O)c1ccccc1NC(=O)COc1ccc2c(c1)oc(=O)c1ccccc12		4.49
COc1cn(-c2ccc(F)cc2)nc1C(=O)Nc1ccc(Cl)cc1Cl		4.82
N#C/C(=C\c1ccc(OCc2cccc(C(=O)O)c2)cc1)c1ccc(F)cc1	> 40 µM (inactive)	
Cc1cccc(NC(=O)c2noc3c2CCc2sccc2-3)n1	> 40 µM (inactive)	
CCn1cc2c(n1)c(=O)n(Cc1ccc(C)cc1)c(=O)n2CC(=O)Nc1ccc(F)cc1	> 40 µM (inactive)	
